# Measurements as given in US8222202B2 (priority 2006, dated 2012).
# Like-named read-outs stand apart in the source and are kept apart here. Starred links: 1 amine or outer side, 2 acyl side, 3 side chain; linkers in the order of their positions; H or OH if unused. Positions of bridges follow the written chain, without caps; N, C: chain ends. Non-standard residues stand in square brackets, D forms with d. Residues, ends and D or L forms follow the SMILES beside them. X3 = CC(C)CCNCCC[C@H](N[*:1])C(=O)[*:2]; Ala(2-furyl) = N[C@@H](Cc1ccco1)C(=O)O; Orn(iPr) = CC(C)NCCC[C@H](N)C(=O)O; 2Thi = N[C@@H](Cc1cccs1)C(=O)O; 3Thi = N[C@@H](Cc1ccsc1)C(=O)O; Aad = N[C@@H](CCCC(=O)O)C(=O)O; Orn = NCCC[C@H](N)C(=O)O; Dab = NCC[C@H](N)C(=O)O
# Tests used:
# [1] = test system: anaesthetised Sprague-Dawley male rats; test: in vivo duration of action, blood pressure test in anaesthetised rats; design: species or system rat; conditions: ratio of decay rate of diastolic blood pressure response, AVP 0.1 nmol/kg i.v. to equieffective dose of compound; dibenamine-pretreated rats
# Description: Blood pressure tests were carried out on anaesthetised Sprague-Dawley male rats (weighing 270-300 g) with catheterised jugular vein and carotid artery. The catheterised carotid artery was used to continuously monitor blood pressure and the jugular vein was used for administration of the compounds tested. Rats received intravenous injections of dibenamine prior to dosing to enhance their responsiveness to V1a receptor agonists (cf. Dekanski, J., Br. J. Pharmacol. 1952, 7, 567-572). […] Dosing intervals were set as time for the blood pressure to decrease to a stable baseline.
# Determination of duration of action was based on the decay rate of diastolic arterial blood pressure transient increase. Specifically, for an exponential decay of plasma concentration, it can be shown that, if the response is measured beyond the distribution phase, the rate of decay near the EC50 is linear and inversely proportional to the elimination half-life (Rowland, M. and Tozer, T. in “Clinical Pharmacokinetics, Concepts and Applications”, 3rd ed., Lippincott Williams & Wilkins, Philadelphia, 1995).
# [2] = molecular target: T1, human oxytocin (hOT) receptor (Homo sapiens, UniProt P30559); test: luciferase-based transcriptional reporter assay, selectivity hOT versus hV1a; assay type: cell-based
# T1 construct: expressed in transfected cells
# T1 sequence (P30559 1-389): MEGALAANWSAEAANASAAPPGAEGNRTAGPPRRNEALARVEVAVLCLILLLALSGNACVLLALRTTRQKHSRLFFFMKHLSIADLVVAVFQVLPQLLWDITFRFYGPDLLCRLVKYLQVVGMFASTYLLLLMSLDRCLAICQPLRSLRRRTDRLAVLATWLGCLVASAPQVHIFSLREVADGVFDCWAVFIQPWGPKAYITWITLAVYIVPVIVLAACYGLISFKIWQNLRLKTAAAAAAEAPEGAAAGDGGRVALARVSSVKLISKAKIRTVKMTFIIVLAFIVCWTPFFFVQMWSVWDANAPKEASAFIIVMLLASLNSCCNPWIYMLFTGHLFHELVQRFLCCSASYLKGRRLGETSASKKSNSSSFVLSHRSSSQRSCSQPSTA
# Description: (§1) Agonist activity of compounds on the hV1a receptor was determined in a transcriptional reporter assay by transiently transfecting a hV1a receptor expression DNA into HEK-293 cells in concert with a reporter DNA containing intracellular calcium responsive promoter elements regulating expression of firefly luciferase. See Boss, V., Talpade, D. J., Murphy, T. J. J. Biol. Chem. 1996, May 3; 271(18), 10429-10432 for further guidance on this assay. […] To determine selectivity, compounds were tested in luciferase-based transcriptional reporter assays expressing the human oxytocin (hOT) receptor. Assays for other receptors (hV2, hV1b, rat V1a and rat V2) were also conducted.
# (§2) The EC50 value given is the geometric mean expressed in nanomol/L (nM). Selectivity values are given as EC50 ratios.
# hV1a receptor = molecular target: T2, hV1a receptor (Homo sapiens, UniProt P37288); test: hV1a receptor transcriptional reporter (luciferase) agonist assay; assay type: cell-based
# T2 construct: expressed in transfected cells; host or cells: HEK-293
# T2 sequence (P37288 whole entry): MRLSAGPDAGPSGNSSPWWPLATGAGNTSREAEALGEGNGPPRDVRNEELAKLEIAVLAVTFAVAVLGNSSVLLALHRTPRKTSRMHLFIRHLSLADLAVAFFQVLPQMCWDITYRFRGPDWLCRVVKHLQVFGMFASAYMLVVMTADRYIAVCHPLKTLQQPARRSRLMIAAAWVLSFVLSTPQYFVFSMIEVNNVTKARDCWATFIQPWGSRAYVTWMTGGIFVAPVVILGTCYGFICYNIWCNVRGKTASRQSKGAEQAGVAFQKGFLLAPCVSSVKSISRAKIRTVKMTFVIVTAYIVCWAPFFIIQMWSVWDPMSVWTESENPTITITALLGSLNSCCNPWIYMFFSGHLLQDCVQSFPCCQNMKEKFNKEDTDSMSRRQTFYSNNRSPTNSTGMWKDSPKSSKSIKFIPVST
# Description: as §1, §2
# [3] = class symbol, agonist efficacy at hOT receptor compared to AVP
# [4] = HEK-293 cells transiently transfected with hV1a receptor, 5 hours exposure, geometric mean, read-out: EC50 hV1a receptor
Structure (SMILES),EC50 (hV1a receptor; [4]) [nM],"selectivity hOT/hV1a [2, 3]",further results
"CC[C@H](C)[C@@H]1NC(=O)[C@H](Cc2ccccc2)NC(=O)[C@@H](N)CSSC[C@@H](C(=O)N2CCC[C@H]2C(=O)N[C@@H](CCCNC(C)C)C(=O)NCC(N)=O)NC(=O)[C@H](CC(N)=O)NC(=O)[C@H](CCCC(N)=O)NC1=O [Compound 1, [Phe^2,Hgn^4,Orn(i-Pr)^8]VT] (H-CFI[Aad](NH2)NCP[Orn(iPr)]G-NH2; disulfide 1-6; N-terminus and C-terminus assumed)",,+ (selective hV1a receptor agonist; EC50 hOT/hV1a ratio not determined due to very low agonist efficacy (<30% compared to AVP) at the hOT receptor),in vivo duration relative to AVP [1]: 1.7
CC[C@H](C)[C@@H]1NC(=O)[C@H](Cc2ccco2)NC(=O)[C@@H](N)CSSC[C@@H](C(=O)N2CCC[C@H]2C(=O)N[C@@H](CCCN)C(=O)NCC(N)=O)NC(=O)[C@H](CC(N)=O)NC(=O)[C@H](CCC(N)=O)NC1=O [Compound 32] (H-C[Ala(2-furyl)]IQNCP[Orn]G-NH2; disulfide 1-6),,,in vivo duration relative to AVP [1]: 2.1
CC[C@H](C)[C@@H]1NC(=O)[C@H](Cc2cccs2)NC(=O)[C@@H](N)CSSC[C@@H](C(=O)N2CCC[C@H]2C(=O)N[C@@H](CCCN)C(=O)NCC(N)=O)NC(=O)[C@H](CC(N)=O)NC(=O)[C@H](CC(N)=O)NC1=O [Compound 33] (H-C[2Thi]INNCP[Orn]G-NH2; disulfide 1-6; N-terminus and C-terminus assumed),14.6,+ (selective hV1a receptor agonist; EC50 hOT/hV1a ratio not determined due to very low agonist efficacy (<30% compared to AVP) at the hOT receptor),
CC[C@H](C)[C@@H]1NC(=O)[C@H](Cc2ccsc2)NC(=O)[C@@H](N)CSSC[C@@H](C(=O)N2CCC[C@H]2C(=O)N[C@@H](CCCN)C(=O)NCC(N)=O)NC(=O)[C@H](CC(N)=O)NC(=O)[C@H](CC(N)=O)NC1=O [Compound 35] (H-C[3Thi]INNCP[Orn]G-NH2; disulfide 1-6),7.3,+ (selective hV1a receptor agonist; EC50 hOT/hV1a ratio not determined due to very low agonist efficacy (<30% compared to AVP) at the hOT receptor),
CC[C@H](C)[C@@H]1NC(=O)[C@H](Cc2ccco2)NC(=O)[C@@H](N)CSSC[C@@H](C(=O)N2CCC[C@H]2C(=O)N[C@@H](CCCNC(C)C)C(=O)NCC(N)=O)NC(=O)[C@H](CC(N)=O)NC(=O)[C@H](CC(N)=O)NC1=O [Compound 42] (H-C[Ala(2-furyl)]INNCP[Orn(iPr)]G-NH2; disulfide 1-6),,,EC50 (hV1a receptor): 6.25 nM; selectivity hOT/hV1a [2]: + (key: +: selective hV1a receptor agonist; EC50 hOT/hV1a ratio not determined due to very low agonist efficacy (<30% compared to AVP) at the hOT receptor)
CC[C@H](C)[C@@H]1NC(=O)[C@H](Cc2ccccc2)NC(=O)[C@@H](N)CSSC[C@@H](C(=O)N2CCC[C@H]2C(=O)N[C@@H](CCCNCCC(C)C)C(=O)NCC(N)=O)NC(=O)[C@H](CC(N)=O)NC(=O)[C@H](CCC(N)=O)NC1=O [Compound 45] (H-CFIQNCP[X3]G-NH2; disulfide 1-6; N-terminus and C-terminus assumed),,,EC50 (hV1a receptor): 1.65 nM; selectivity hOT/hV1a ([2]; EC50 ratio): 18

# Second part, led by results:
EC50 (hV1a receptor; [4]) [nM],Structure (SMILES),"selectivity hOT/hV1a [2, 3]",further results
11.5,CC[C@H](C)[C@@H]1NC(=O)[C@H](Cc2cccs2)NC(=O)[C@@H](N)CSSC[C@@H](C(=O)N2CCC[C@H]2C(=O)N[C@@H](CCN)C(=O)NCC(N)=O)NC(=O)[C@H](CC(N)=O)NC(=O)[C@H](CC(N)=O)NC1=O [Compound 36] (H-C[2Thi]INNCP[Dab]G-NH2; disulfide 1-6; N-terminus and C-terminus assumed),+ (selective hV1a receptor agonist; EC50 hOT/hV1a ratio not determined due to very low agonist efficacy (<30% compared to AVP) at the hOT receptor),
7.45,CC[C@H](C)[C@@H]1NC(=O)[C@H](Cc2ccsc2)NC(=O)[C@@H](N)CSSC[C@@H](C(=O)N2CCC[C@H]2C(=O)N[C@@H](CCN)C(=O)NCC(N)=O)NC(=O)[C@H](CC(N)=O)NC(=O)[C@H](CC(N)=O)NC1=O [Compound 37] (H-C[3Thi]INNCP[Dab]G-NH2; disulfide 1-6; N-terminus and C-terminus assumed),+ (selective hV1a receptor agonist; EC50 hOT/hV1a ratio not determined due to very low agonist efficacy (<30% compared to AVP) at the hOT receptor),
10.1,CC[C@H](C)[C@@H]1NC(=O)[C@H](Cc2ccco2)NC(=O)[C@@H](N)CSSC[C@@H](C(=O)N2CCC[C@H]2C(=O)N[C@@H](CCCN)C(=O)NCC(N)=O)NC(=O)[C@H](CC(N)=O)NC(=O)[C@H](CC(N)=O)NC1=O [Compound 38] (H-C[Ala(2-furyl)]INNCP[Orn]G-NH2; disulfide 1-6; N-terminus and C-terminus assumed),+ (selective hV1a receptor agonist; EC50 hOT/hV1a ratio not determined due to very low agonist efficacy (<30% compared to AVP) at the hOT receptor),
13.7,CC[C@H](C)[C@@H]1NC(=O)[C@H](Cc2cccs2)NC(=O)[C@@H](N)CSSC[C@@H](C(=O)N2CCC[C@H]2C(=O)N[C@@H](CCCNC(C)C)C(=O)NCC(N)=O)NC(=O)[C@H](CC(N)=O)NC(=O)[C@H](CC(N)=O)NC1=O [Compound 43] (H-C[2Thi]INNCP[Orn(iPr)]G-NH2; disulfide 1-6; N-terminus and C-terminus assumed),+ (selective hV1a receptor agonist; EC50 hOT/hV1a ratio not determined due to very low agonist efficacy (<30% compared to AVP) at the hOT receptor),
14.5,CC[C@H](C)[C@@H]1NC(=O)[C@H](Cc2ccco2)NC(=O)[C@@H](N)CSSC[C@@H](C(=O)N2CCC[C@H]2C(=O)N[C@@H](CCN)C(=O)NCC(N)=O)NC(=O)[C@H](CC(N)=O)NC(=O)[C@H](CC(N)=O)NC1=O [Compound 44] (H-C[Ala(2-furyl)]INNCP[Dab]G-NH2; disulfide 1-6; N-terminus and C-terminus assumed),+ (selective hV1a receptor agonist; EC50 hOT/hV1a ratio not determined due to very low agonist efficacy (<30% compared to AVP) at the hOT receptor),
5.7,CCNC(=O)C[C@@H]1NC(=O)[C@H]([C@@H](C)CC)NC(=O)[C@H](Cc2ccccc2)NC(=O)[C@@H](N)CSSC[C@@H](C(=O)N2CCC[C@H]2C(=O)N[C@@H](CCCN)C(=O)NCC(N)=O)NC(=O)[C@H](CC(N)=O)NC1=O [Compound 48] (H-CFID(NHEt)NCP[Orn]G-NH2; disulfide 1-6; N-terminus and C-terminus assumed),+ (selective hV1a receptor agonist; EC50 hOT/hV1a ratio not determined due to very low agonist efficacy (<30% compared to AVP) at the hOT receptor),
3.58,CC[C@H](C)[C@@H]1NC(=O)[C@H](Cc2ccccc2)NC(=O)[C@@H](N)CSSC[C@@H](C(=O)N2CCC[C@H]2C(=O)N[C@@H](CCCN)C(=O)NCC(N)=O)NC(=O)[C@H](CC(N)=O)NC(=O)[C@H](CC(=O)NC)NC1=O [Compound 49] (H-CFID(NHMe)NCP[Orn]G-NH2; disulfide 1-6; N-terminus and C-terminus assumed),+ (selective hV1a receptor agonist; EC50 hOT/hV1a ratio not determined due to very low agonist efficacy (<30% compared to AVP) at the hOT receptor),
